These results are taken from BindingDB's records for doi:10.7270/Q2DV1H7P (Burnham Center For Chemical Genomics, 2009).

This experiment concerns the target Runt-related transcription factor 1 (Homo sapiens, UniProt Q01196). Briefly: inhibitors of RUNX1 Runt–CBFb-SMMHC binding, primary screen, biochemical, FRET, Cerulean-Runt, Venus-CBFb-SMMHC, uHTS (AID 1434). The note with it: pH 7.4; 23 °C.

Sequence of Runt-related transcription factor 1 (Q01196 whole entry): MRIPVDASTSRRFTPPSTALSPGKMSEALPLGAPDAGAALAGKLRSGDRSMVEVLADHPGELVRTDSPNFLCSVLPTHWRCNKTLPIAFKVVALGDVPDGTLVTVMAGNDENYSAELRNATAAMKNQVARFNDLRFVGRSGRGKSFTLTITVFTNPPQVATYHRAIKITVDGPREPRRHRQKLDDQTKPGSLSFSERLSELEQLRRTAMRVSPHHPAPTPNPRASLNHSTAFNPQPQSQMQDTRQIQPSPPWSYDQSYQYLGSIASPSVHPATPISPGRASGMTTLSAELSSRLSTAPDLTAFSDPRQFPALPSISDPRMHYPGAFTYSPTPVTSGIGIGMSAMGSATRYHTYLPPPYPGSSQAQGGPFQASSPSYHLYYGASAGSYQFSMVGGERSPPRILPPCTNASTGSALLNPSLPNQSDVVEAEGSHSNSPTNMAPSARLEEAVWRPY

Turning to `CN1c2ccsc2C(=O)C(C(=S)Nc2ccc(F)c(Cl)c2)S1(=O)=O` (stereo not drawn), the IC50 (in general, the concentration needed to halve the response being measured) came to 100 µM.

`Cc1ccc(C)c(-c2csc(N=NC(C)c3cc4c(ccc5ccccc54)oc3=O)n2)c1` (stereo not drawn) [MLS000559785] returned an IC50 of 10.1 µM.

In turn, `Cc1cc2c(c(=O)n1CCc1ccccc1)C(c1ccco1)C(C#N)C(=N)O2` (stereo not drawn) [SMR000149533] showed an IC50 of 100 µM.
